Test results reported in ChEMBL document CHEMBL1201862, “PubChem BioAssay data set” (2004).
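Briefly, cells in 96-well plates were exposed to five compound concentrations for 48 h, and endpoints were estimated by linear interpolation. At the GI50, growth is halved.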 Active and inactive are the calls of the source. Cut-off read from the data, not from the text of the source: active = GI50 up to about 1.1 µM and inactive = higher.

Assays:
Experiment in all cases: inhibition of tumour cell growth, NCI panel, 48 h
NCI/ADR-RES = tested on: NCI/ADR-RES
ACHN = tested on: ACHN
SK-OV-3 = tested on: SK-OV-3
UACC-257 = tested on: UACC-257
BT-549 = tested on: BT-549
DU-145 = tested on: DU-145
OVCAR-3 = tested on: OVCAR-3
NCI-H522 = tested on: NCI-H522
U-251 = tested on: U-251
OVCAR-4 = tested on: OVCAR-4
OVCAR-5 = tested on: OVCAR-5
HCT-15 = tested on: HCT-15
M14 = tested on: M14
LOX IMVI = tested on: LOX IMVI
SK-MEL-2 = tested on: SK-MEL-2
KM12 = tested on: KM12
UO-31 = tested on: UO-31
SNB-75 = tested on: SNB-75
HOP-62 = tested on: HOP-62

Row | Structure (SMILES) | GI50 (NCI/ADR-RES) | GI50 (ACHN) | GI50 (SK-OV-3) | GI50 (UACC-257) | GI50 (BT-549) | GI50 (DU-145) | GI50 (OVCAR-3) | GI50 (NCI-H522) | GI50 (U-251) | GI50 (OVCAR-4) | GI50 (OVCAR-5) | GI50 (HCT-15) | GI50 (M14) | GI50 (LOX IMVI) | GI50 (SK-MEL-2) | GI50 (KM12) | GI50 (UO-31) | GI50 (SNB-75) | GI50 (HOP-62)
1 | COc1cc2cccc(N)c2cc1OC | > 100 µM (inactive) | > 100 µM (inactive) | > 100 µM (inactive) | > 100 µM (inactive) | > 66.7 µM (inactive) | > 100 µM (inactive) | > 100 µM (inactive) | > 100 µM (inactive) | > 100 µM (inactive) | > 100 µM (inactive) | > 100 µM (inactive) | > 100 µM | > 100 µM (inactive) | > 100 µM (inactive) | > 100 µM (inactive) | > 100 µM (inactive) | > 100 µM (inactive) | > 100 µM (inactive) | > 100 µM (inactive)
2 | N#Cc1c(C#N)c(SSc2c(C#N)c(C#N)c(N)n2-c2cccc3ccccc23)n(-c2cccc3ccccc23)c1N | 25.1 µM (inactive) | 5.15 µM (inactive) | 24.1 µM (inactive) | 5.62 µM (inactive) | 5.83 µM (inactive) | 21.9 µM (inactive) | 1.84 µM (inactive) | 1.5 µM (inactive) | 19.7 µM (inactive) | 6.01 µM (inactive) | 24.2 µM (inactive) | 1.98 µM | 3.08 µM (inactive) | 7.94 µM (inactive) | 15.3 µM (inactive) | 41.6 µM (inactive) | 2.34 µM (inactive) | 5.62 µM (inactive) | 21.7 µM (inactive)
3 | N#C/C(N)=C(C#N)/N=C/NCCO | > 100 µM (inactive) | > 100 µM (inactive) | > 100 µM (inactive) | > 100 µM (inactive) | > 100 µM (inactive) | > 100 µM (inactive) | > 100 µM (inactive) | > 100 µM (inactive) | > 100 µM (inactive) | > 100 µM (inactive) | > 100 µM (inactive) | > 100 µM | > 100 µM (inactive) | > 100 µM (inactive) | > 100 µM (inactive) | > 100 µM (inactive) | > 100 µM (inactive) | > 100 µM (inactive) | > 100 µM (inactive)
4 | O=[N+]([O-])C(=C(Nc1ccccc1)Nc1ccccc1)C(Cl)=C(Cl)Cl | 22.6 µM (inactive) | 15.9 µM (inactive) | 29 µM (inactive) | 14.9 µM (inactive) | 13.9 µM (inactive) | 17.5 µM (inactive) | 16.5 µM (inactive) | 21.4 µM (inactive) | 20.2 µM (inactive) | 12.2 µM (inactive) | 23.1 µM (inactive) | 16.3 µM | 18.2 µM (inactive) | 8.77 µM (inactive) | 13.1 µM (inactive) | 24.9 µM (inactive) | 24.5 µM (inactive) | 19.1 µM (inactive) | 21.9 µM (inactive)
5 | O=C(CCc1ccccc1)n1cccc1CO | > 100 µM (inactive) | > 100 µM (inactive) | > 100 µM (inactive) | > 100 µM (inactive) | > 100 µM (inactive) | > 100 µM (inactive) | > 100 µM (inactive) | > 100 µM (inactive) | > 100 µM (inactive) | > 100 µM (inactive) | > 100 µM (inactive) | > 100 µM | > 100 µM (inactive) | > 100 µM (inactive) | > 100 µM (inactive) | > 100 µM (inactive) | > 100 µM (inactive) | > 100 µM (inactive) | > 100 µM (inactive)
6 | Cc1cc(N(CCOS(C)(=O)=O)CCOS(C)(=O)=O)ccc1/C=N/c1ccc(-c2csc(-c3ccc(Br)cc3)n2)cc1 | 15.1 µM (inactive) | 0.518 µM (active) | 1.98 µM (inactive) | 18.9 µM (inactive) | 20.5 µM (inactive) | 1.91 µM (inactive) | 10.3 µM (inactive) | 0.8 µM (active) | 15.2 µM (inactive) | 26.5 µM (inactive) | 17.3 µM (inactive) | 15.2 µM | 9.08 µM (inactive) | 9.18 µM (inactive) | 24.7 µM (inactive) | 13.3 µM (inactive) | 10.2 µM (inactive) | 3.99 µM (inactive) | 4.58 µM (inactive)
7 | CCCCCCCCCCCCCCCCNC(=O)/C(=C\c1ccc(Cl)c(Cl)c1)NC(=O)c1ccccc1 | 48.3 µM (inactive) | 47.4 µM (inactive) | 53 µM (inactive) | > 100 µM (inactive) | > 100 µM (inactive) | 27.4 µM (inactive) | > 100 µM (inactive) | 37.2 µM (inactive) | 35.4 µM (inactive) | 24.8 µM (inactive) | 47.2 µM (inactive) | 30.8 µM | > 100 µM (inactive) | 21.9 µM (inactive) | > 100 µM (inactive) | 52.6 µM (inactive) | 42 µM (inactive) | 16.7 µM (inactive) | 21.4 µM (inactive)
8 | Cc1cc(C)c2c(=O)n(CN3CCC(O)(c4ccccc4)CC3)sc2n1 | 53.1 µM (inactive) | 19.4 µM (inactive) | > 100 µM (inactive) |  | 97.3 µM (inactive) | 38.3 µM (inactive) | 38.4 µM (inactive) | 11.8 µM (inactive) | 77.8 µM (inactive) | 29.4 µM (inactive) | 23 µM (inactive) | 34.7 µM | 50 µM (inactive) | 31.1 µM (inactive) | > 100 µM (inactive) | > 100 µM (inactive) | 17.2 µM (inactive) | 19.2 µM (inactive) | 34.7 µM (inactive)
9 | C[C@]12CC[C@H]3[C@@H](CC=C4C[C@@H](O)CC[C@@]43C)[C@@H]1C/C(=C\c1ccncc1)[C@@H]2O | 17.3 µM (inactive) | 16.9 µM (inactive) | 28.3 µM (inactive) | 17.3 µM (inactive) | 3.51 µM (inactive) | 23.1 µM (inactive) | 23.7 µM (inactive) | 16.3 µM (inactive) | 16.5 µM (inactive) | 12.2 µM (inactive) | 32.7 µM (inactive) | 20.9 µM | 16.5 µM (inactive) | 22 µM (inactive) | 21.1 µM (inactive) | 15.9 µM (inactive) | 27.1 µM (inactive) | 27.1 µM (inactive) | 29.9 µM (inactive)
10 | O=c1oc2ccc3ccccc3c2cc1-c1cn2c(n1)sc1ccccc12 | > 100 µM (inactive) | > 100 µM (inactive) | > 100 µM (inactive) | > 100 µM (inactive) | > 100 µM (inactive) | > 100 µM (inactive) | > 100 µM (inactive) | > 100 µM (inactive) | > 100 µM (inactive) | > 100 µM (inactive) | > 100 µM (inactive) | > 100 µM | > 100 µM (inactive) | > 100 µM (inactive) | > 100 µM (inactive) | > 100 µM (inactive) | > 100 µM (inactive) | > 100 µM (inactive) | > 100 µM (inactive)
11 | CC(C)(C)c1cc(/C=C(\C#N)C2=NCCO2)cc(C(C)(C)C)c1O | 2.66 µM (inactive) | 3.56 µM (inactive) | 3.31 µM (inactive) | 2.64 µM (inactive) | 3.43 µM (inactive) | 4.94 µM (inactive) | 2.17 µM (inactive) | 3.2 µM (inactive) | 3.31 µM (inactive) | 3.13 µM (inactive) | 2.89 µM (inactive) | 3.29 µM | 5.02 µM (inactive) | 5.96 µM (inactive) | 2.75 µM (inactive) | 3.57 µM (inactive) | 2.73 µM (inactive) | 2.42 µM (inactive) | 4.3 µM (inactive)
12 | CC1=C[C@@H](C)C[C@]2(C)CC[C@H](O2)[C@]23CC[C@](CO)(C[C@H](O2)[C@@H]2O[C@@](C)(CC2=O)[C@@H](O)[C@H]2CC[C@@]4(CCC[C@@H](O4)[C@H](C)C(=O)O[C@H]4C[C@H]([C@]5(O)OCC[C@H](C)[C@@H]5O)O[C@H]4C=C1)O2)O3 | > 5.18 µM (inactive) | 0.0249 µM (active) | 0.0177 µM (active) | 0.142 µM (active) | 0.0127 µM (active) | 0.247 µM (active) | 0.0171 µM (active) | 0.116 µM (active) | 0.022 µM (active) | 0.0179 µM (active) | 0.0316 µM (active) | 0.15 µM | 0.0258 µM (active) | 0.001 µM (active) | 0.0513 µM (active) | 0.757 µM (active) | 0.0435 µM (active) | 0.001 µM (active) | 0.00345 µM (active)
13 | COc1cc(OC)c(/C=C\c2cc(/C=C/c3c(OC)cc(OC)cc3OC)c3ccccc3[n+]2C)c(OC)c1 | > 100 µM (inactive) | 4.59 µM (inactive) | 4.69 µM (inactive) | 2.92 µM (inactive) | 4.1 µM (inactive) | 5.94 µM (inactive) | 2.33 µM (inactive) | 1.96 µM (inactive) | 1.28 µM (inactive) | 8.39 µM (inactive) | 13.2 µM (inactive) | 0.719 µM | 2.56 µM (inactive) | 4.07 µM (inactive) | 1.74 µM (inactive) | 2.98 µM (inactive) | 7.16 µM (inactive) | 2.77 µM (inactive) | 1.07 µM (active)
14 | C=C1C(=O)O[C@H]2[C@H]([C@H](C)CCCC(C)=O)O[C@H]([C@@]3(C)CCC(=O)O3)C[C@@H]12 | > 100 µM (inactive) | 46.9 µM (inactive) | > 100 µM (inactive) | 77.1 µM (inactive) | 31.8 µM (inactive) | 40.6 µM (inactive) | 56.1 µM (inactive) | 26.4 µM (inactive) | > 100 µM (inactive) | > 100 µM (inactive) | > 100 µM (inactive) | 42 µM | 33.9 µM (inactive) | 24.4 µM (inactive) | > 100 µM (inactive) | 98.9 µM (inactive) | > 100 µM (inactive) | > 100 µM (inactive) | > 100 µM (inactive)
